From US10413505B1, “Pharmaceutical compositions and methods of using the same” (priority 2017, dated 2019)
Counter-ions that a name gives are not always drawn.

Experiments:
Sprague Dawley rats [1] = experiment: Example 10 cocaethylene HCl intranasal toxicity, Single-Dose Phase; assay type: in vivo, rat
Method: Cocaethylene HCl in the vehicle (deionized water) was administered by intranasal instillation once to a group (Group 2) of Sprague Dawley rats at a dose level of 2.1 mg/kg. […] The dose volume was 0.22 mL/kg, divided between the 2 nares, for both groups. Groups 1 and 2 each consisted of 20 animals/sex. Following dose administration, 10 animals/sex/group were euthanized on Study Day 1; the remaining 10 animals/sex/group were euthanized following a 14-day non-dosing (recovery) period. Criteria for evaluation included daily mortality observations, daily clinical observations, detailed physical observations, body weights, food consumption, clinical pathology (hematology, coagulation, serum chemistry, and urinalysis), organ weights, gross pathology, and microscopic examination of select tissues.
(§1) The vehicle and test article formulations were administered by intranasal instillation into each naris via a syringe equipped with stainless steel-shafted, stainless steel ball-tipped dosing cannula once (Single-Dose Phase) or once daily for 14 consecutive days (Repeat-Dose Phase), through the day prior to the primary necropsy. The same syringe and dosing cannula was used to administer the dose across both nares for a given animal on a given dosing day. The total dose volume administered per dose was split approximately equally across each naris, such that approximately half of the total dose volume was administered into one naris, and the remaining was administered into the other naris. Treatment administration across each naris for an individual animal occurred at approximately the same time. The dose volume for all groups was 0.22 mL/kg. Individual doses were based on the most recently recorded body weights. Adjusted doses became effective the day of collection of the weekly body weights. The first day of dosing was Study Day 0; the first week of dosing was Study Week 0.
(§2) All animals were observed twice daily, once in the morning and once in the afternoon, for mortality and moribundity.
(§3) Clinical examinations were performed at the time of dose administration and 1 to 2 hours following dose administration. During the recovery period, the animals were observed once daily. The absence or presence of findings was recorded for individual animals at the scheduled intervals. For the Single-Dose Phase, detailed physical examinations were conducted on all animals within 4 days of receipt, on the day of randomization, and on Study Days 0, 1, 7, and 14. For the Repeat-Dose Phase, detailed physical examinations were conducted on all animals within 4 days of receipt, on the day of randomization, weekly (±2 days) during the study period, and on the day of the scheduled necropsies. Daily observations during the recovery period were not necessary on days when detailed physical examinations were conducted.
(§4) Individual body weights were recorded within 4 days of receipt, on the day of randomization, Study Day 0 (prior to dosing), weekly (±2 days) during the study period, and on the day prior to the scheduled necropsies (nonfasted). Mean body weights and mean body weight changes were calculated for the corresponding intervals. Final body weights (fasted) were recorded on the day of the scheduled necropsies.
(§5) Cage food weights were recorded once weekly (±2 days) beginning following randomization and throughout the study period. Food consumption was calculated as g/animal/day for the corresponding body weight intervals.
(§6) Blood and urine samples for clinical pathology evaluations (hematology, coagulation, serum chemistry, and urinalysis) were collected from all animals assigned to the scheduled necropsies. The animals were fasted overnight prior to blood collection while in metabolism cages for urine collection. Blood was collected from a jugular vein and from the vena cava at the time of necropsy. Blood was collected into tubes containing potassium K2EDTA (hematology), sodium citrate (coagulation), or no anticoagulant (serum chemistry). […]

Sprague Dawley rats [2] = experiment: Example 10 cocaethylene HCl intranasal toxicity, Repeat-Dose Phase; assay type: in vivo, rat
Method: Cocaethylene hydrochloride in the vehicle was administered by intranasal instillation once daily for 14 days to a group (Group 2) of Sprague Dawley rats at a dosage level of 2.1 mg/kg/day. […] The dose volume was 0.22 mL/kg, divided between the 2 nares, for both groups. Groups 1 and 2 each consisted of 15 animals/sex. Following 14 days of dose administration, 10 animals/sex/group were euthanized; the remaining […] animals/sex/group were euthanized following a 14-day nondosing (recovery) period. Criteria for evaluation included daily mortality observations, daily clinical observations, detailed physical observations, body weights, food consumption, clinical pathology (hematology, coagulation, serum chemistry, and urinalysis), organ weights, gross pathology, and microscopic examination of select tissues.
as §1, §2, §3, §4, §5, §6

[3] = 2.1 mg/kg once, intranasal instillation
[4] = 2.1 mg/kg/day for 14 days, intranasal instillation

## CCOC(=O)[C@@H]1C2CCC(C[C@@H]1OC(=O)c1ccccc1)N2C (stereo partly drawn) [cocaethylene HCl, cocaethylene hydrochloride]
Sprague Dawley rats [1]; [3]
  body weights: unaffected
  clinical observations: no test article-related clinical observations
  food consumption: unaffected
  hematology and coagulation parameters: unaffected
  macroscopic examination at necropsy: no test article-related macroscopic findings
  organ weights: unaffected
  serum chemistry parameters: unaffected
  survival: All animals survived
  urinalysis parameters: unaffected
Sprague Dawley rats [1]; 2.1 mg/kg once, intranasal instillation, also after 14-day recovery
  microscopic examination (nasal cavity with turbinates): No test article-related microscopic findings
Sprague Dawley rats [1]; Single-Dose Phase, 9.6 mg/mL in deionized water, pH meter
  pH of the dosing formulation: 2.81
Sprague Dawley rats [2]; 2.1 mg/kg once or once daily for 14 days, intranasal instillation
  tolerability: well tolerated
Sprague Dawley rats [2]; [4]
  body weights: unaffected
  clinical observations: no test article-related clinical observations
  food consumption: unaffected
  hematology and coagulation parameters: unaffected
  macroscopic examination at necropsy: no test article-related macroscopic findings
  organ weights: unaffected
  serum chemistry parameters: unaffected
  survival: All animals survived
  urinalysis parameters: unaffected
Sprague Dawley rats [2]; 2.1 mg/kg/day for 14 days, intranasal instillation, also after 14-day recovery
  microscopic examination (nasal cavity with turbinates): No test article-related microscopic findings
Sprague Dawley rats [2]; Repeat-Dose Phase, 9.6 mg/mL in deionized water, pH meter
  pH of the dosing formulation: 2.81
Sprague Dawley rats [2]; intranasal instillation once or once daily for 14 days
  no-observed-effect level (NOEL): 2.1 mg/kg/day
